We go through 6 compounds from US5304551A, “Anti-fungal compounds” (British Technology Group Limited, priority 1990, dated 1994).

Values after ≈ are worked out from the molar mass of the structure shown.

Common to all, as to type: cell-based
Experiment [1] deals with Candida albicans NCYC 597. The experiment in a line: Antifungal activity, agar plate disc zone of inhibition, approximate MIC, Candida albicans. As to conditions: NCYC597, C. albicans, compound in dimethyl sulphoxide, 13 mm discs on nutrient agar, 24h and 48h incubation, read-out: MICs, C. albicans. On the procedure: (§1) Candida albicans NCYC 597; Trichophyton mentagrophytes NCPF 224 and Microsporum audounii NCPF 638 were used throughout as test organisms. These are open deposits at the National Collection of Yeast Cultures, Norwich UK and the National Collection of Pathogenic Fungi of the Commonwealth Mycological Institute, Kew UK.
(§2) All organisms were maintained in a nutrient broth containing (gl^-1): Lab Lemco (Oxoid), 5; Peptone (Oxoid), 5; NaCl, 10. Cultures for testing antimicrobial activity were grown in this medium for 18h prior to use. Solidified media were prepared by the addition of Agar (Oxoid No. 3) 1.5% w/v.
(§3) Antifungal activity was estimated using solutions of the compound (as the free acid) in dimethyl sulphoxide. A range of concentrations was used for each compound to permit calculation of an approximate MIC. 13 mm discs (Whatman) were soaked in a solution of the appropriate dilution, either allowed to dry, or placed directly onto the surface of nutrient agar plates seeded with the required test organism.
(§4) After 24h incubation the diameters of zones of inhibition were measured. After a further 24h incubation, the plates were re-examined and zones re-measured.

Experiment [2] deals with Trichophyton mentagrophytes NCPF 224. The experiment in a line: Antifungal activity, agar plate disc zone of inhibition, approximate MIC, Trichophyton mentagrophytes. As to conditions: for MIC: Trichophyton mentagrophytes, NCPF224, approximate MIC, compound in dimethyl sulphoxide, 13 mm discs on nutrient agar, 24h and 48h incubation, read-out: MICs, T. ment.; for activity against the athlete's foot organism (in words): athlete's foot and ringworm organisms. On the procedure: as §1, §2, §3, §4

The test system of experiment [3] is Microsporum audounii NCPF 638. The experiment is described as follows: Antifungal activity, agar plate disc zone of inhibition, approximate MIC, Microsporum audounii. To be noted: for MIC: Microsporum, NCPF638, M. audounii, approximate MIC, compound in dimethyl sulphoxide, 13 mm discs on nutrient agar, 24h and 48h incubation; for activity against the ringworm organism (in words): athlete's foot and ringworm organisms. On the procedure: as §1, §2, §3, §4

As for `C[C@H](CCCCO)[C@H]1CC[C@H]2[C@@H]3[C@H](O)C[C@@H]4C[C@H](O)CC[C@]4(C)[C@H]3CC[C@]12C` [chenodeoxycholic, Z = CH2 OH, 3α,7α,25-trihydroxy-25-homo-5β-cholane], the MIC amounted to 110 µg/mL (≈ 280 µM) in experiment [1] and 270 µg/mL (≈ 688 µM) in experiment [3]. For the same compound, the “MICs, T. ment. (result in words)” value in experiment [2] (T. mentagrophytes, no MIC / no activity) is reported as “NONE”.
Regarding `C[C@H](CCCO)[C@H]1CC[C@H]2[C@@H]3[C@H](O)C[C@@H]4C[C@H](O)CC[C@]4(C)[C@H]3CC[C@]12C` [chenodeoxycholic, Z = OH, 3α,7α,24-trihydroxy-5β-cholane], the MIC in experiment [1] amounted to 7000 µg/mL (≈ 18500 µM); in experiment [2] (T. mentagrophytes) it was 30 µg/mL (≈ 79.2 µM); in experiment [3] it was 50 µg/mL (≈ 132 µM).
For `C[C@H](CCCCO)[C@H]1CC[C@H]2[C@@H]3[C@H](O)C[C@@H]4C[C@H](O)CC[C@]4(C)[C@H]3C[C@H](O)[C@]12C` [cholic, Z = CH2 OH, 3α,7α,12α,25-tetrahydroxy-25-homo-5β-cholane], the MIC in experiment [1] was 450 µg/mL (≈ 1100 µM); in experiment [2] (T. mentagrophytes) it was 100 µg/mL (≈ 245 µM); in experiment [3], 20 to 50 µg/mL (≈ 48.9 to 122 µM).
Turning to `C[C@H](CCCO)[C@H]1CC[C@H]2[C@@H]3[C@H](O)C[C@@H]4C[C@H](O)CC[C@]4(C)[C@H]3C[C@H](O)[C@]12C` [cholic, Z = OH, 3α,7α,12α,24-tetrahydroxy-5β-cholane], the MIC in experiment [1] is 900 µg/mL (≈ 2280 µM); in experiment [2] (T. mentagrophytes), 1650 µg/mL (≈ 4180 µM); in experiment [3], 3800 µg/mL (≈ 9630 µM).
For the compound `C[C@H](CCCCO)[C@H]1CC[C@H]2[C@@H]3CC[C@@H]4C[C@H](O)CC[C@]4(C)[C@H]3C[C@H](O)[C@]12C` [deoxycholic, Z = CH2 OH, 3α,12α,25-trihydroxy-25-homo-5β-cholane], the MIC came out at 150 µg/mL (≈ 382 µM) in experiment [1], 30 µg/mL (≈ 76.4 µM) in experiment [2] (T. mentagrophytes) and 5 µg/mL (≈ 12.7 µM) in experiment [3]. In addition, the “activity against the athlete's foot organism (in words)” value in experiment [2] is listed as “outstanding”. The “activity against the ringworm organism (in words)” value in experiment [3] is “outstanding”.
In the case of `C[C@H](CCCO)[C@H]1CC[C@H]2[C@@H]3CC[C@@H]4C[C@H](O)CC[C@]4(C)[C@H]3C[C@H](O)[C@]12C` [deoxycholic, Z = OH, 3α,12α,24-trihydroxy-5β-cholane], the MIC in experiment [1] amounted to 730 µg/mL (≈ 1930 µM); in experiment [2] (T. mentagrophytes), 10 µg/mL (≈ 26.4 µM); in experiment [3], 10 µg/mL (≈ 26.4 µM). Moreover, the “activity against the athlete's foot organism (in words)” value in experiment [2] is on record as “outstanding”. Further, the “activity against the ringworm organism (in words)” value in experiment [3] is “outstanding”.
